Measured values published in the supplement of paper PMC10307832.

Columns and labels:
Assay in all cases: relative viability (nuclei count vs DMSO), 5 days (fraction); higher = more cells survive
Alisertib + Vorinostat = compound: COc1cc(Nc2ncc3c(n2)-c2ccc(Cl)cc2C(c2c(F)cccc2OC)=NC3)ccc1C(=O)O [Alisertib] + O=C(CCCCCCC(=O)Nc1ccccc1)NO [Vorinostat] (partner 1 µM)
Summary of the method: (§1)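 Each reported value is a median over duplicate plates. It expresses relative viability: treated-well nuclei count divided by vehicle-well nuclei count. Lung cancer cell lines in 1536-well plates were dosed by pin tool a day after seeding, alone with one drug or with a fixed anchor-drug dose plus five library-drug doses (not always all listed) in √10 steps, and nuclei were counted after 5 days.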

Alisertib + Dasatinib = compound: COc1cc(Nc2ncc3c(n2)-c2ccc(Cl)cc2C(c2c(F)cccc2OC)=NC3)ccc1C(=O)O [Alisertib] + Cc1nc(Nc2ncc(C(=O)Nc3c(C)cccc3Cl)s2)cc(N2CCN(CCO)CC2)n1 [Dasatinib] (partner 0.075 µM)
Summary of the method: as §1

Alisertib + Pictilisib = compound: COc1cc(Nc2ncc3c(n2)-c2ccc(Cl)cc2C(c2c(F)cccc2OC)=NC3)ccc1C(=O)O [Alisertib] + CS(=O)(=O)N1CCN(Cc2cc3nc(-c4cccc5[nH]ncc45)nc(N4CCOCC4)c3s2)CC1 [Pictilisib] (partner 1 µM)
Summary of the method: as §1

Alisertib + Crizotinib = compound: COc1cc(Nc2ncc3c(n2)-c2ccc(Cl)cc2C(c2c(F)cccc2OC)=NC3)ccc1C(=O)O [Alisertib] + C[C@@H](Oc1cc(-c2cnn(C3CCNCC3)c2)cnc1N)c1c(Cl)ccc(F)c1Cl [Crizotinib] (partner 1 µM)
Summary of the method: as §1

| Cell Line | relative viability (Alisertib + Vorinostat; first compound 0.005 µM) | relative viability (Alisertib + Vorinostat; first compound 0.01581 µM) | relative viability (Alisertib + Vorinostat; first compound 0.05 µM) | relative viability (Alisertib + Vorinostat; first compound 0.1581 µM) | relative viability (Alisertib + Vorinostat; first compound 0.5 µM) | relative viability (Alisertib + Dasatinib; first compound 0.005 µM) | relative viability (Alisertib + Dasatinib; first compound 0.01581 µM) | relative viability (Alisertib + Dasatinib; first compound 0.05 µM) | relative viability (Alisertib + Dasatinib; first compound 0.1581 µM) | relative viability (Alisertib + Dasatinib; first compound 0.5 µM) | relative viability (Alisertib + Pictilisib; first compound 0.005 µM) | relative viability (Alisertib + Pictilisib; first compound 0.01581 µM) | relative viability (Alisertib + Pictilisib; first compound 0.05 µM) | relative viability (Alisertib + Pictilisib; first compound 0.1581 µM) | relative viability (Alisertib + Pictilisib; first compound 0.5 µM) | relative viability (Alisertib + Crizotinib; first compound 0.005 µM) | relative viability (Alisertib + Crizotinib; first compound 0.01581 µM) | relative viability (Alisertib + Crizotinib; first compound 0.05 µM) | relative viability (Alisertib + Crizotinib; first compound 0.1581 µM) | relative viability (Alisertib + Crizotinib; first compound 0.5 µM) |
| --- | --- | --- | --- | --- | --- | --- | --- | --- | --- | --- | --- | --- | --- | --- | --- | --- | --- | --- | --- | --- |
| NCI-H647 | 0.49 | 0.156 | 0.106 | 0.112 | 0.0745 | 0.186 | 0.16 | 0.104 | 0.0476 | 0.0381 | 0.42 | 0.449 | 0.274 | 0.137 | 0.0788 | 0.91 | 0.625 | 0.241 | 0.193 | 0.109 |
| NCI-H650 | 0.263 | 0.414 | 0.144 | 0.17 | 0.131 | 0.429 | 0.479 | 0.21 | 0.194 | 0.169 | 0.732 | 0.825 | 0.29 | 0.267 | 0.174 | 0.773 | 0.55 | 0.28 | 0.239 | 0.23 |
| NCI-H661 | 0.771 | 0.729 | 0.435 | 0.355 | 0.276 | 0.57 | 0.675 | 0.416 | 0.258 | 0.297 | 0.378 | 0.379 | 0.229 | 0.245 | 0.242 | 1.05 | 1.02 | 0.48 | 0.392 | 0.504 |
| NCI-H727 | 1.19 | 0.986 | 0.939 | 0.471 | 0.561 | 0.425 | 0.357 | 0.397 | 0.243 | 0.242 | 0.273 | 0.333 | 0.236 | 0.236 | 0.225 | 0.691 | 0.675 | 0.361 | 0.315 | 0.267 |
| NCI-H838 | 0.597 | 0.461 | 0.294 | 0.185 | 0.197 | 0.289 | 0.298 | 0.263 | 0.239 | 0.189 | 0.377 | 0.379 | 0.274 | 0.189 | 0.113 | 0.821 | 0.727 | 0.281 | 0.218 | 0.186 |
| NCI-H1355 | 0.589 | 0.522 | 0.525 | 0.204 | 0.177 | 0.691 | 0.702 | 0.664 | 0.177 | 0.184 | 0.37 | 0.374 | 0.28 | 0.181 | 0.164 | 1.08 | 0.906 | 0.737 | 0.215 | 0.186 |
| NCI-H1437 | 0.774 | 0.606 | 0.42 | 0.283 | 0.213 | 0.35 | 0.403 | 0.314 | 0.17 | 0.0967 | 0.341 | 0.378 | 0.219 | 0.123 | 0.0875 | 0.855 | 0.878 | 0.45 | 0.338 | 0.141 |
| NCI-H1650 | 0.57 | 0.488 | 0.388 | 0.176 | 0.185 | 0.325 | 0.298 | 0.164 | 0.138 | 0.125 | 0.527 | 0.461 | 0.328 | 0.151 | 0.166 | 0.975 | 0.71 | 0.359 | 0.255 | 0.276 |
